# Measured values reported in ChEMBL document CHEMBL1135216, “New 2-(1-adamantylcarbonyl)pyridine and 1-acetyladamantane thiosemicarbazones-thiocarbonohydrazones: cell growth inhibitory, antiviral and antimicrobial activity evaluation” (Bioorg Med Chem Lett, 2002).
# Key:
# HEL [1] = test: Tested for antiviral activity against thymidine kinase deficient Varicella zoster virus in human embryonic lung fibroblasts; type: functional
# Escherichia coli = test: Tested for the antimicrobial activity against Escherichia coli ATCC 25922; type: functional
# K562 [2] = test: Tested for the inhibitory concentration against cell growth of human leukemic cell line K562; type: functional
# HEL [3] = test: Tested for antiviral activity against human cytomegalovirus (AD-169) in human embryonic lung fibroblasts; type: functional
# E6SM [4] = test: Antiviral activity against thymidine kinase-deficient (TK-HSV-1)virus in E6SM cell line(human embryonic skin-muscle fibroblasts); type: functional
# MT4 [5] = test: Tested for effective concentration required to protect MT-4 cells against the cytopathicity of HIV-2(ROD); type: functional, cell-based; conditions: Homo sapiens
# MT4 [6] = test: Tested for cytotoxic concentration required to reduce the viability of MT-4 cells by 50%; type: functional, cell-based; conditions: Homo sapiens, read-out: EC50 (the source's name)
# E6SM [7] = test: Tested for cytotoxic activity in human embryonic skin muscle fibroblast (E6SM); type: functional; conditions: Muscle tissue
# CCRF-CEM [8] = test: Tested for the inhibitory concentration against cell growth of human leukemic cell line CCRF-CEM; type: functional
# CCRF-CEM [9] = test: Tested for the concentration required to reduce the viability of leukemia cells by 50% against cell growth of T cell leukemia cell line CCRF-CEM using MTT assay; type: functional; conditions: Homo sapiens
# HeLa [10] = test: Tested for antiviral activity against coxsackie-B4 virus in human epithelial cell line; type: functional
# HuT78 [11] = test: Tested for the concentration required to reduce the viability of leukemia cells by 50% against cell growth of HuT78 T lymphoma using MTT assay; type: functional; conditions: Homo sapiens
# K562 [12] = test: Tested for the inhibitory concentration against cell growth of K562 chronic myeloid leukemia using MTT assay; type: functional; conditions: Homo sapiens
# MOLT-4 [13] = test: Tested for the inhibitory concentration against cell growth of Tcell leukemic cell line MOLT-4 using MTT assay; type: functional; conditions: Homo sapiens
# Vero [14] = test: Tested for antiviral activity against Sindbis virus in African green monkey kidney cell (Vero); type: functional; conditions: Chlorocebus sabaeus
# HL-60 [15] = test: Tested for the inhibitory concentration against cell growth of HL60 acute myeloid leukemia using MTT assay; type: functional; conditions: Homo sapiens
# HuT78 [16] = test: Tested for the inhibitory concentration against cell growth of HuT78 T lymphoma using MTT assay; type: functional; conditions: Homo sapiens
# E6SM [17] = test: Tested for antiviral activity against herpes simplex virus type 1(KOS) in E6SM cell line(human embryonic skin-muscle fibroblasts); type: functional
# HL-60 [18] = test: Tested for the concentration required to reduce the viability of leukemia cells by 50% against cell growth of HL60 acute myeloid leukemia using MTT assay; type: functional; conditions: Homo sapiens, read-out: LC50 (the source's name)
# MOLT-4 [19] = test: Tested for the inhibitory concentration against cell growth of human leukemic cell line MOLT-4; type: functional
# Staphylococcus aureus = test: Tested for the antimicrobial activity against Staphylococcus aureus ATCC 6538; type: functional
# HEL [20] = test: Tested for antiviral activity against thymidine kinase wild type Varicella zoster virus in human embryonic lung fibroblast; type: functional
# HL-60 [21] = test: Tested for the inhibitory concentration against cell growth of human leukemic cell line HL60; type: functional
# RPMI-8226 [22] = test: Tested for the inhibitory concentration against cell growth of […] multiple myeloma using MTT assay; type: functional; conditions: Homo sapiens
# E6SM [23] = test: Tested for antiviral activity against thymidine kinase-deficient (TK-HSV-2G) virus in E6SM cell line(human embryonic skin-muscle fibroblasts)
# Klebsiella pneumoniae = test: Tested for the antimicrobial activity against Klebsiella pneumoniae ATCC 13883; type: functional
# HuT78 [24] = test: Tested for the inhibitory concentration against cell growth of human leukemic cell line HuT78; type: functional
# E6SM [25] = test: Tested for antiviral activity against VSV-virus in human embryonic skin muscle fibroblasts; type: functional; conditions: Muscle tissue
# MOLT-4 [26] = test: Tested for the concentration required to reduce the viability of leukemia cells by 50% against cell growth of T cell leukemia cell line MOLT-4 using MTT assay; type: functional; conditions: Homo sapiens
# RPMI-8226 [27] = test: Tested for the concentration required to reduce the viability of leukemia cells by 50% against cell growth of RPMI8226 multiple myeloma using MTT assay; type: functional; conditions: Homo sapiens, read-out: LC50 (the source's name)
# CCRF-CEM [28] = test: Tested for the inhibitory concentration against cell growth of Tcell leukemic cell line CCRF-CEM using MTT assay; type: functional; conditions: Homo sapiens
# [29] = system: Staphylococcus epidermidis; test: Tested for the antimicrobial activity against Staphylococcus epidermidis ATCC 12228; type: functional
# RPMI-8226 [30] = test: Tested for the inhibitory concentration against cell growth of human leukemic cell line RPMI8226; type: functional
# HEL [31] = test: Tested for cytotoxic activity in human embryonic lung fibroblast (HEL); type: functional
# Staphylococcus hominis = test: Tested for the antimicrobial activity against Staphylococcus hominis ATCC 27844; type: functional
# Vero [32] = test: Tested for antiviral activity against coxsackie B-4 virus in African green monkey kidney cell (Vero); type: functional; conditions: Chlorocebus sabaeus
# Vero [33] = test: Tested for antiviral activity against Punta toro virus in African green monkey kidney cell (Vero); type: functional; conditions: Chlorocebus sabaeus
# Vero [34] = test: Tested for antiviral activity against Reo-1 virus in African green monkey kidney cell (Vero); type: functional; conditions: Chlorocebus sabaeus
# Vero [35] = test: Tested for cytotoxic activity in African green monkey kidney cells (Vero); type: functional; conditions: Chlorocebus sabaeus
# E6SM [36] = test: The compound was tested for antiviral activity against VSV-virus in human epithelial cells; type: functional
# Vero [37] = test: Tested for antiviral activity against parainfluenza virus in african green monkey kidney cell (Vero); type: functional; conditions: Chlorocebus sabaeus
# HeLa [38] = test: Tested for cytotoxic activity in human epithelial cell line (HeLa); type: functional
# MT4 [39] = test: Tested for effective concentration required to protect MT-4 cells against the cytopathicity of HIV-1(IIIB); type: functional; conditions: Homo sapiens, read-out: LC50 (the source's name)
# K562 [40] = test: Tested for the concentration required to reduce the viability of leukemia cells by 50% against cell growth of K562 chronic myeloid leukemia using MTT assay; type: functional; conditions: Homo sapiens, read-out: LC50 (the source's name)
# E6SM [41] = test: Tested for antiviral activity against vaccinia virus in human embryonic skin muscle fibroblast; type: functional; conditions: Muscle tissue
smiles,measurement,setting,value
S=C(N/N=C(/c1ccccn1)C12CC3CC(CC(C3)C1)C2)NNC(=S)c1ccc(Cl)cc1Cl,MIC,HEL [1],> 2 mg/L
same,MIC,Escherichia coli,> 1880 mg/L
same,GI50,K562 [2],100 µM
same,MIC,HEL [3],> 2 mg/L
same,MIC,E6SM [4],> 16 mg/L
same,EC50,MT4 [5],> 3 µM
same,CC50,MT4 [6],2.6 µM
same,MCC,E6SM [7],80 µg/mL
same,GI50,CCRF-CEM [8],66.3 µM
same,TGI,CCRF-CEM [9],100 µM
same,MIC,HeLa [10],> 3.2 mg/L
same,TGI,HuT78 [11],100 µM
same,TGI,K562 [12],100 µM
same,TGI,MOLT-4 [13],100 µM
same,MIC,Vero [14],> 3.2 mg/L
same,TGI,HL-60 [15],7 µM
same,TGI,HuT78 [16],81 µM
same,MIC,E6SM [17],> 16 mg/L
same,CC50,HL-60 [18],31.9 µM
same,GI50,MOLT-4 [19],31.4 µM
same,MIC,Staphylococcus aureus,117 mg/L
same,MIC,HEL [20],> 2 mg/L
same,GI50,HL-60 [21],3.6 µM
same,TGI,RPMI-8226 [22],29.5 µM
same,MIC,E6SM [23],> 3.2 mg/L
same,MIC,Klebsiella pneumoniae,> 1880 mg/L
same,GI50,HuT78 [24],23 µM
same,MIC,E6SM [25],> 16 mg/L
same,TGI,MOLT-4 [26],100 µM
same,CC50,RPMI-8226 [27],100 µM
same,TGI,CCRF-CEM [28],100 µM
same,MIC,[29],117 mg/L
same,GI50,RPMI-8226 [30],4.6 µM
same,MCC,HEL [31],5 µg/mL
same,MIC,Staphylococcus hominis,117 mg/L
same,MIC,Vero [32],> 3.2 mg/L
same,MIC,Vero [33],> 3.2 mg/L
same,MIC,Vero [34],> 3.2 mg/L
same,MCC,Vero [35],16 µg/mL
same,MIC,E6SM [36],> 16 mg/L
same,MIC,Vero [37],> 3.2 mg/L
same,MCC,HeLa [38],16 µg/mL
same,EC50,MT4 [39],> 3 µM
same,CC50,K562 [40],100 µM
same,MIC,E6SM [41],> 16 mg/L
C/C(=N/N=C(\N)S)C12CC3CC(CC(C3)C1)C2,MIC,HEL [1],> 2 mg/L
same,MIC,Escherichia coli,> 3980 mg/L
same,GI50,K562 [2],2.8 µM
same,MIC,HEL [3],> 2 mg/L
same,MIC,E6SM [4],> 400 mg/L
same,EC50,MT4 [5],> 8 µM
same,CC50,MT4 [6],7.5 µM
same,MCC,E6SM [7],> 400 µg/mL
same,GI50,CCRF-CEM [8],23.6 µM
same,TGI,CCRF-CEM [9],86.7 µM
same,MIC,HeLa [10],> 80 mg/L
same,TGI,HuT78 [11],83.1 µM
same,TGI,K562 [12],10.4 µM
same,TGI,MOLT-4 [13],9.3 µM
same,MIC,Vero [14],> 80 mg/L
same,TGI,HL-60 [15],24.1 µM
same,TGI,HuT78 [16],29.1 µM
same,MIC,E6SM [17],240 mg/L
same,CC50,HL-60 [18],63.6 µM
same,GI50,MOLT-4 [19],2.3 µM
same,MIC,Staphylococcus aureus,> 3980 mg/L
same,MIC,HEL [20],> 2 mg/L
same,GI50,HL-60 [21],5.2 µM
same,TGI,RPMI-8226 [22],33.3 µM
same,MIC,E6SM [23],> 80 mg/L
same,MIC,Klebsiella pneumoniae,> 3980 mg/L
same,GI50,HuT78 [24],2.3 µM
same,MIC,E6SM [25],> 400 mg/L
same,TGI,MOLT-4 [26],59.4 µM
same,CC50,RPMI-8226 [27],69.2 µM
same,TGI,CCRF-CEM [28],55.2 µM
same,MIC,[29],> 3980 mg/L
same,GI50,RPMI-8226 [30],7.1 µM
same,MCC,HEL [31],5 µg/mL
same,MIC,Staphylococcus hominis,> 3980 mg/L
same,MIC,Vero [32],> 80 mg/L
same,MIC,Vero [33],> 80 mg/L
same,MIC,Vero [34],> 80 mg/L
same,MCC,Vero [35],400 µg/mL
same,MIC,E6SM [36],240 mg/L
same,MIC,Vero [37],> 80 mg/L
same,MCC,HeLa [38],400 µg/mL
same,EC50,MT4 [39],> 8 µM
same,CC50,K562 [40],62.6 µM
same,MIC,E6SM [41],> 400 mg/L
